Measured values: US12522602B2, “Derivatives having 2,3-dihydro-1H-indene or 2,3-dihydrobenzofuran moiety or pharmaceutically acceptable salt thereof and pharmaceutical compositions comprising the same” (YUHAN CORPORATION, priority 2019, dated 2026)

test system: GM1 production in Jurkat cells; experiment: cells; type: cell-based; details: Homo sapiens, Jurkat, 72 h

| SMILES | IC50 |
| --- | --- |
| COc1ccc(-c2cc3c(cc2OC)C(NC(=O)O[C@@H]2CN4CCC2CC4)C(C)(C)C3)c(Cl)c1 (stereo partly drawn) [Example 346, (S)-quinuclidin-3-yl (5-(2-chloro-4-methoxyphenyl)-6-methoxy-2,2-dimethyl-2,3-dihydro-1H-inden-1-yl)carbamate] | 38.3 nM |
| CC1(C)Cc2cc(-c3ccc(OCC4CC4)nc3)ccc2C1NC(=O)O[C@@H]1CN2CCC1CC2 (stereo partly drawn) [Example 185, (S)-quinuclidin-3-yl (5-(6-(cyclopropylmethoxy)pyridin-3-yl)-2,2-dimethyl-2,3-dihydro-1H-inden-1-yl)carbamate] | 11.1 nM |
| CC1(C)Cc2cc(-c3cc(F)cc(C(F)(F)F)c3)ccc2C1NC(=O)O[C@@H]1CN2CCC1CC2 (stereo partly drawn) [Example 246, (S)-quinuclidin-3-yl (5-(3-fluoro-5-(trifluoromethyl)phenyl)-2,2-dimethyl-2,3-dihydro-1H-inden-1-yl)carbamate] | 14.7 nM |
| CCOc1ccc(Cl)cc1-c1ccc2c(c1)CC(C)(C)C2NC(=O)O[C@@H]1CN2CCC1CC2 (stereo partly drawn) [Example 212, (S)-quinuclidin-3-yl (5-(5-chloro-2-ethoxyphenyl)-2,2-dimethyl-2,3-dihydro-1H-inden-1-yl)carbamate] | 19.1 nM |
| CC1(C)Cc2cc(-c3ccsc3)ccc2C1NC(=O)O[C@@H]1CN2CCC1CC2 (stereo partly drawn) [Example 137, (S)-quinuclidin-3-yl (2,2-dimethyl-5-(thiophen-3-yl)-2,3-dihydro-1H-inden-1-yl)carbamate] | 12.1 nM |
| CC1(C)Cc2cc(-c3ccccc3OC(F)(F)F)ccc2C1NC(=O)O[C@@H]1CN2CCC1CC2 (stereo partly drawn) [Example 84, (S)-quinuclidin-3-yl (2,2-dimethyl-5-(2-(trifluoromethoxy)phenyl)-2,3-dihydro-1H-inden-1-yl)carbamate] | 4.9 nM |
| CC(C)COc1cccc(-c2cc3c(cc2F)C(NC(=O)O[C@@H]2CN4CCC2CC4)C(C)(C)C3)c1 (stereo partly drawn) [Example 380, (S)-quinuclidin-3-yl (6-fluoro-5-(3-isobutoxyphenyl)-2,2-dimethyl-2,3-dihydro-1H-inden-1-yl)carbamate] | 36.5 nM |
| CCC1(CC)Cc2cc(-c3ccoc3)ccc2C1NC(=O)O[C@@H]1CN2CCC1CC2 (stereo partly drawn) [Example 307, (S)-quinuclidin-3-yl (2,2-diethyl-5-(furan-3-yl)-2,3-dihydro-1H-inden-1-yl)carbamate] | 30.2 nM |
| COc1cccc(-c2ccc3c(c2)CC(C)(C)C3NC(=O)O[C@@H]2CN3CCC2CC3)c1OC (stereo partly drawn) [Example 165, (S)-quinuclidin-3-yl (5-(2,3-dimethoxyphenyl)-2,2-dimethyl-2,3-dihydro-1H-inden-1-yl)carbamate] | 15.6 nM |
| CCCc1ccc(-c2ccc3c(c2)CC(C)(C)C3NC(=O)O[C@@H]2CN3CCC2CC3)cc1 (stereo partly drawn) [Example 163, (S)-quinuclidin-3-yl (2,2-dimethyl-5-(4-propylphenyl)-2,3-dihydro-1H-inden-1-yl)carbamate] | 12.2 nM |
| O=C(NC1CCc2cc(-c3ccccc3C(F)(F)F)ccc21)O[C@@H]1CN2CCC1CC2 (stereo partly drawn) [Example 11, (S)-quinuclidin-3-yl (5-(2-(trifluoromethyl)phenyl)-2,3-dihydro-1H-inden-1-yl)carbamate] | 123 nM |
| CCC1(CC)Cc2cc(-c3cc(OC)cc(OC)c3)ccc2C1NC(=O)O[C@@H]1CN2CCC1CC2 (stereo partly drawn) [Example 299, (S)-quinuclidin-3-yl (5-(3,5-dimethoxyphenyl)-2,2-diethyl-2,3-dihydro-1H-inden-1-yl)carbamate] | 25.3 nM |
| CCC1(CC)Cc2cc(-c3cccc(OC(C)C)c3)ccc2C1NC(=O)O[C@@H]1CN2CCC1CC2 (stereo partly drawn) [Example 291, (S)-quinuclidin-3-yl (2,2-diethyl-5-(3-isopropoxyphenyl)-2,3-dihydro-1H-inden-1-yl)carbamate] | 13.5 nM |
| COCCOc1ccc(-c2ccc3c(c2)CC2(CC2)C3NC(=O)O[C@@H]2CN3CCC2CC3)cc1 (stereo partly drawn) [Example 395, (S)-quinuclidin-3-yl (5′-(4-(2-methoxyethoxy)phenyl)-1′,3′-dihydrospiro[cyclopropane-1,2′-inden]-1′-yl)carbamate] | 30.9 nM |
| O=C(NC1CCc2cc(-c3cc(F)ccc3F)ccc21)O[C@@H]1CN2CCC1CC2 (stereo partly drawn) [Example 18, (S)-quinuclidin-3-yl (5-(2,5-difluorophenyl)-2,3-dihydro-1H-inden-1-yl)carbamate] | 31.6 nM |
| CCOc1ccc(-c2ccc3c(c2)CC(C)(C)C3NC(=O)O[C@@H]2CN3CCC2CC3)c(C)c1 (stereo partly drawn) [Example 206, (S)-quinuclidin-3-yl (5-(4-ethoxy-2-methylphenyl)-2,2-dimethyl-2,3-dihydro-1H-inden-1-yl)carbamate] | 14 nM |
| CN(C)CCOc1cccc(-c2ccc3c(c2)CC(C)(C)C3NC(=O)O[C@@H]2CN3CCC2CC3)c1 (stereo partly drawn) [Example 139, (S)-quinuclidin-3-yl (5-(3-(2-(dimethylamino)ethoxy)phenyl)-2,2-dimethyl-2,3-dihydro-1H-inden-1-yl)carbamate] | 74.4 nM |
| COc1cc2c(cc1-c1ccc(OC(C)C)cc1)CC(C)(C)C2NC(=O)O[C@@H]1CN2CCC1CC2 (stereo partly drawn) [Example 320, (S)-quinuclidin-3-yl (5-(4-isopropoxyphenyl)-6-methoxy-2,2-dimethyl-2,3-dihydro-1H-inden-1-yl)carbamate] | 8.5 nM |
| CCOc1ccc(-c2ccc3c(c2)CC(CC)(CC)C3NC(=O)O[C@@H]2CN3CCC2CC3)cc1 (stereo partly drawn) [Example 284, (S)-quinuclidin-3-yl (5-(4-ethoxyphenyl)-2,2-diethyl-2,3-dihydro-1H-inden-1-yl)carbamate] | 8.5 nM |
| CC1(C)Cc2cc(-c3ccc(Cl)c(Cl)c3)ccc2C1NC(=O)O[C@@H]1CN2CCC1CC2 (stereo partly drawn) [Example 92, (S)-quinuclidin-3-yl (5-(3,4-dichlorophenyl)-2,2-dimethyl-2,3-dihydro-1H-inden-1-yl)carbamate] | 43.9 nM |
| Cc1ccc(C)c(-c2ccc3c(c2)CC(C)(C)C3NC(=O)O[C@@H]2CN3CCC2CC3)c1 (stereo partly drawn) [Example 260, (S)-quinuclidin-3-yl (5-(2,5-dimethylphenyl)-2,2-dimethyl-2,3-dihydro-1H-inden-1-yl)carbamate] | 14.4 nM |
| CCCOc1ccc(-c2ccc3c(c2)CC(C)(C)C3NC(=O)O[C@@H]2CN3CCC2CC3)c(OCCC)c1 (stereo partly drawn) [Example 203, (S)-quinuclidin-3-yl (5-(2,4-dipropoxyphenyl)-2,2-dimethyl-2,3-dihydro-1H-inden-1-yl)carbamate] | 8.2 nM |
| COc1ccc(F)cc1-c1ccc2c(c1)CC(C)(C)C2NC(=O)O[C@@H]1CN2CCC1CC2 (stereo partly drawn) [Example 234, (S)-quinuclidin-3-yl (5-(5-fluoro-2-methoxyphenyl)-2,2-dimethyl-2,3-dihydro-1H-inden-1-yl)carbamate] | 13.6 nM |
| CC1(C)Cc2cc(-c3cccc(F)c3)ccc2C1NC(=O)O[C@@H]1CN2CCC1CC2 (stereo partly drawn) [Example 77, (S)-quinuclidin-3-yl (5-(3-fluorophenyl)-2,2-dimethyl-2,3-dihydro-1H-inden-1-yl)carbamate] | 6.3 nM |
| CC1(C)Cc2cc(-c3cccc4ccncc34)ccc2C1NC(=O)O[C@@H]1CN2CCC1CC2 (stereo partly drawn) [Example 140, (S)-quinuclidin-3-yl (5-(isoquinolin-8-yl)-2,2-dimethyl-2,3-dihydro-1H-inden-1-yl)carbamate] | 10.5 nM |
| O=C(NC1CCc2ccc(-c3ccc(F)cc3F)cc21)O[C@@H]1CN2CCC1CC2 (stereo partly drawn) [Example 43, (S)-quinuclidin-3-yl (6-(2,4-difluorophenyl)-2,3-dihydro-1H-inden-1-yl)carbamate] | 183 nM |
